This is an account of results in patent US20240116985A1, “STAPLED PEPTIDES AND METHODS THEREOF” (priority 2020, published 2024).

Test [1] addresses T1, full-length beta-Catenin (Uniprot ID P35222) (Homo sapiens, UniProt P35222).
T1 construct: 10 nM full-length beta-Catenin (Uniprot ID P35222)
T1 sequence (P35222 1-781): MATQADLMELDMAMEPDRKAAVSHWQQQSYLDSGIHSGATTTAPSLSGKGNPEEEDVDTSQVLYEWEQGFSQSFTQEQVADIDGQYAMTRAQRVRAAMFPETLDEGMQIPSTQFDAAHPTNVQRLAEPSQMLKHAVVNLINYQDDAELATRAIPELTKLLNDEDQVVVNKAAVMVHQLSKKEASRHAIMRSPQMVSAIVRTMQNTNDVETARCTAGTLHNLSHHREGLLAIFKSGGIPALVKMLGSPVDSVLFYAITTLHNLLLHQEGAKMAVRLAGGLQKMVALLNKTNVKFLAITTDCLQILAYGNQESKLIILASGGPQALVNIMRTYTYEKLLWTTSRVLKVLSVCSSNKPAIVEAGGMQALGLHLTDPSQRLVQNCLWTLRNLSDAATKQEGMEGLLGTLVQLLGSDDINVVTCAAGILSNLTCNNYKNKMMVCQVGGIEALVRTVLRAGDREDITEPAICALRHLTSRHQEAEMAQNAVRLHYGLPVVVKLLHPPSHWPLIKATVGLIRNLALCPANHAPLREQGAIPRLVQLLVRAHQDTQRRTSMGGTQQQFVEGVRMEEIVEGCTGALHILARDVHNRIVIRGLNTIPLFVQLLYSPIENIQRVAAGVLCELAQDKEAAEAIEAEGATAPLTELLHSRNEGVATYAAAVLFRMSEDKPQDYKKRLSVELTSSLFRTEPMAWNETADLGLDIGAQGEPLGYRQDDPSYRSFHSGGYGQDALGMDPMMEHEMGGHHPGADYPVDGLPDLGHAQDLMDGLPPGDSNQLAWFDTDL
Description: Fluorescence polarization IC50 (beta-catenin / 5FAM-TCF4 10-53 competition). The class given is binding. The following applies: fluorescence polarization; read-out: beta-Catenin FP IC50. Background: Fluorescence polarisation rises when a labelled molecule tumbles more slowly, as on binding a larger partner.

In test [2] the target is T2, beta-catenin/TCF4 engagement (Homo sapiens, UniProt P35222).
T2 construct: expressed in transfected cells; host or cells: HEK293
T2 sequence (P35222 1-781): T1 sequence (P35222 1-781)
In words: Nano-BRET target engagement assay (B-cat-Halo & TCF4-Luc in HEK293 cells). The class given is cell-based. To be noted: absolute IC50; read-out: NanoBRET Abs IC50. A general note: In BRET a luciferase serves as donor, and the signal depends on an acceptor being close.

pIC50: −log10 of the molar value.

What is called pIC50 is the negative decadic logarithm of the IC50, by convention in mol/L. With `CC(=O)N1CCC[C@]12CC=CCCCC1(CCCC=CCCCOC(=O)N3CC[C@@](C(=O)N[C@@H](Cc4ccsc4)C(=O)N[C@@H](Cc4csc5ccccc45)C(=O)N[C@@H](CCC(N)=O)C(N)=O)(C3)NC(=O)[C@H](CC(N)=O)NC(=O)[C@H](Cc3ccccc3)NC(=O)[C@H](C)NC(=O)[C@H](C)NC(=O)[C@H](CN(CC(=O)O)Cc3c(F)c(F)c(F)c(F)c3F)NC(=O)[C@H](CC(=O)O)NC1=O)NC(=O)[C@H](CC(C)(C)C)NC(=O)[C@H](CC(=O)O)NC2=O` (stereo partly drawn) [I-1638, Ac-PL3-Asp-Npg-B5-Asp-[Pfbn]GA-Ala-Ala-Phe-Asn-PyrS2-3Thi-BztA-Gln-NH2], the pIC50 in test [1] was 8.05; in test [2], 4.84.
Taken in the same sequence, the figures for `CC(=O)N1CCC[C@]12CC=CCCCC1(CCCC=CCCCOC(=O)N3CC[C@@](C(=O)N[C@@H](Cc4ccsc4)C(=O)N[C@@H](Cc4csc5ccccc45)C(=O)N[C@@H](CCC(N)=O)C(N)=O)(C3)NC(=O)[C@H](CC(N)=O)NC(=O)[C@H](Cc3ccccc3)NC(=O)[C@H](C)NC(=O)[C@H](C)NC(=O)[C@H](CN(CC(=O)O)Cc3c(F)c(F)c(F)c(F)c3F)NC(=O)[C@H](CC(=O)O)NC1=O)NC(=O)[C@H](CC(C)(C)C)NC(=O)[C@H](CC(=O)O)NC2=O` (stereo partly drawn) [I-1639, Ac-PL3-Asp-Npg-B5-Asp-[Pfbn]GA-Ala-Ala-Phe-Asn-PyrS2-3Thi-BztA-Gln-NH2] were 7.89 and 4.48.
On the same counts, the results for `CC(=O)N1CCC[C@]12CC=CCCCC1(CCCC=CCCCOC(=O)N3CC[C@@](C(=O)N[C@@H](Cc4ccccc4)C(=O)N[C@@H](Cc4csc5ccccc45)C(=O)N[C@@H](CCC(N)=O)C(N)=O)(C3)NC(=O)[C@H](CC(C)C)NC(=O)[C@H](Cc3ccccc3)NC(=O)[C@H](C)NC(=O)[C@H](CCCCNC(C)C)NC(=O)[C@H](CCC(N)=O)NC(=O)[C@H](CC(=O)O)NC1=O)NC(=O)[C@H](CC1CCCCC1)NC(=O)[C@H](CC(N)=O)NC2=O` (stereo partly drawn) [I-1648, Ac-PL3-Asn-Cha-B5-Asp-Gln-iPrLys-Ala-Phe-Leu-PyrS2-Phe-BztA-Gln-NH2] are 6.72 and under 4.70.
Take `CC(=O)N1CCC[C@]12CC=CCCCC1(CCCC=CCCCOC(=O)N3CC[C@@](C(=O)N[C@@H](Cc4ccccc4C(F)(F)F)C(=O)N[C@@H](Cc4csc5ccccc45)C(=O)N[C@@H](CCC(N)=O)C(N)=O)(C3)NC(=O)[C@H](Cc3ccccc3)NC(=O)[C@H](Cc3ccccc3)NC(=O)[C@H](C)NC(=O)[C@H](C)NC(=O)[C@H](Cc3ccccc3C(=O)O)NC(=O)[C@H](CC(=O)O)NC1=O)NC(=O)[C@H](CC(C)(C)C)NC(=O)[C@H](CC(=O)O)NC2=O` (stereo partly drawn) [I-1655, Ac-PL3-Asp-Npg-B5-Asp-2COOHF-Ala-Ala-Phe-Phe-PyrS2-2F3MeF-BztA-Gln-NH2]: the negative logarithm of the IC50 (pIC50) in test [1] was 7.32; in test [2], 4.90.
Regarding `CC(=O)N1CCC[C@]12CC=CCCCC1(CCCC=CCCCOC(=O)N3CC[C@@](C(=O)N[C@@H](Cc4ccccc4C(F)(F)F)C(=O)N[C@@H](Cc4csc5ccccc45)C(=O)N[C@@H](CCC(N)=O)C(N)=O)(C3)NC(=O)[C@H](CC(C)C)NC(=O)[C@H](Cc3ccccc3)NC(=O)[C@H](C)NC(=O)[C@H](C)NC(=O)[C@H](Cc3ccccc3C(=O)O)NC(=O)[C@H](CC(=O)O)NC1=O)NC(=O)[C@H](CC(C)(C)C)NC(=O)[C@H](CC(=O)O)NC2=O` (stereo partly drawn) [I-1656, Ac-PL3-Asp-Npg-B5-Asp-2COOHF-Ala-Ala-Phe-Leu-PyrS2-2F3MeF-BztA-Gln-NH2], the results for the pIC50 in test [1] and in test [2] were 7.70 and 4.96, respectively.
For the compound `CC(=O)N1CCC[C@]12CC=CCCCC1(CCCC=CCCCOC(=O)N3CC[C@@](C(=O)N[C@@H](Cc4ccccc4Cl)C(=O)N[C@@H](Cc4csc5ccccc45)C(=O)N[C@@H](CCC(N)=O)C(N)=O)(C3)NC(=O)[C@H](Cc3ccccc3)NC(=O)[C@H](Cc3ccccc3)NC(=O)[C@H](C)NC(=O)[C@H](C)NC(=O)[C@H](Cc3ccccc3C(=O)O)NC(=O)[C@H](CC(=O)O)NC1=O)NC(=O)[C@H](CC(C)(C)C)NC(=O)[C@H](CC(=O)O)NC2=O` (stereo partly drawn) [I-1657, Ac-PL3-Asp-Npg-B5-Asp-2COOHF-Ala-Ala-Phe-Phe-PyrS2-2C1F-BztA-Gln-NH2], the pIC50 in test [1] was 7.44; in test [2], 4.96.
On the same counts, the results for `CC(=O)N1CCC[C@]12CC=CCCCC1(CCCC=CCCCOC(=O)N3CC[C@@](C(=O)N[C@@H](Cc4ccccc4Cl)C(=O)N[C@@H](Cc4csc5ccccc45)C(=O)N[C@@H](CCC(N)=O)C(N)=O)(C3)NC(=O)[C@H](CC(C)C)NC(=O)[C@H](Cc3ccccc3)NC(=O)[C@H](C)NC(=O)[C@H](C)NC(=O)[C@H](Cc3ccccc3C(=O)O)NC(=O)[C@H](CC(=O)O)NC1=O)NC(=O)[C@H](CC(C)(C)C)NC(=O)[C@H](CC(=O)O)NC2=O` (stereo partly drawn) [I-1658, Ac-PL3-Asp-Npg-B5-Asp-2COOHF-Ala-Ala-Phe-Leu-PyrS2-2C1F-BztA-Gln-NH2] are 7.72 and 5.01.
Taken in the same sequence, the figures for `CC(=O)N1CCC[C@]12CC=CCCCC1(CCCC=CCCCOC(=O)N3CC[C@@](C(=O)N[C@@H](Cc4ccccc4C(F)(F)F)C(=O)N[C@@H](Cc4csc5ccccc45)C(=O)N[C@@H](CO)C(N)=O)(C3)NC(=O)[C@H](Cc3ccccc3)NC(=O)[C@H](Cc3ccccc3)NC(=O)[C@H](C)NC(=O)[C@H](C)NC(=O)[C@H](Cc3ccccc3C(=O)O)NC(=O)[C@H](CC(=O)O)NC1=O)NC(=O)[C@H](CC(C)(C)C)NC(=O)[C@H](CC(=O)O)NC2=O` (stereo partly drawn) [I-1659, Ac-PL3-Asp-Npg-B5-Asp-2COOHF-Ala-Ala-Phe-Phe-PyrS2-2F3MeF-BztA-Ser-NH2] were 6.97 and 4.94.
On the same counts, the results for `CC(=O)N1CCC[C@]12CC=CCCCC1(CCCC=CCCCOC(=O)N3CC[C@@](C(=O)N[C@@H](Cc4ccccc4Cl)C(=O)N[C@@H](Cc4csc5ccccc45)C(=O)N[C@@H](CO)C(N)=O)(C3)NC(=O)[C@H](Cc3ccccc3)NC(=O)[C@H](Cc3ccccc3)NC(=O)[C@H](C)NC(=O)[C@H](C)NC(=O)[C@H](Cc3ccccc3C(=O)O)NC(=O)[C@H](CC(=O)O)NC1=O)NC(=O)[C@H](CC(C)(C)C)NC(=O)[C@H](CC(=O)O)NC2=O` (stereo partly drawn) [I-1662, Ac-PL3-Asp-Npg-B5-Asp-2COOHF-Ala-Ala-Phe-Phe-PyrS2-2C1F-BztA-Ser-NH2] are 7.16 and 4.92.
As to `CC(=O)N1CCC[C@]12CC=CCCCC1(CCCC=CCCCOC(=O)N3CC[C@@](C(=O)N[C@@H](Cc4ccccc4Cl)C(=O)N[C@@H](Cc4csc5ccccc45)C(=O)N[C@@H](CO)C(N)=O)(C3)NC(=O)[C@H](CC(C)C)NC(=O)[C@H](Cc3ccccc3)NC(=O)[C@H](C)NC(=O)[C@H](C)NC(=O)[C@H](Cc3ccccc3C(=O)O)NC(=O)[C@H](CC(=O)O)NC1=O)NC(=O)[C@H](CC(C)(C)C)NC(=O)[C@H](CC(=O)O)NC2=O` (stereo partly drawn) [I-1663, Ac-PL3-Asp-Npg-B5-Asp-2COOHF-Ala-Ala-Phe-Leu-PyrS2-2C1F-BztA-Ser-NH2], the pIC50 in test [1] is 7.17; in test [2] it was 5.07.
Taken in the same sequence, the figures for `CCNC(=O)[C@H](CCC(N)=O)NC(=O)[C@H](Cc1csc2ccccc12)NC(=O)[C@H](Cc1ccccc1Cl)NC(=O)[C@]12CCN(C1)C(=O)OCCCC=CCCCC1(CCCC=CC[C@]3(CCCN3C(C)=O)C(=O)N[C@@H](CC(=O)O)C(=O)N[C@@H](CC(C)(C)C)C(=O)N1)C(=O)N[C@@H](CC(=O)O)C(=O)N[C@@H](Cc1cccc(C(=O)O)c1)C(=O)N[C@@H](C)C(=O)N[C@@H](C)C(=O)N[C@@H](Cc1ccccc1)C(=O)N[C@@H](CC(C)C)C(=O)N2` (stereo partly drawn) [I-1672, Ac-PL3-Asp-Npg-B5-Asp-3COOHF-Ala-Ala-Phe-Leu-PyrS2-2C1F-BztA-Gln-NHEt] were 7.40 and 5.15.
On the same counts, the results for `CC(=O)N1CCC[C@]12CC=CCCCC1(CCCC=CCCCOC(=O)N3CC[C@@](C(=O)N[C@@H](Cc4ccccc4Cl)C(=O)N[C@@H](Cc4csc5ccccc45)C(=O)N[C@@H](CCC(N)=O)C(=O)N[C@H](CO)Cc4ccccc4)(C3)NC(=O)[C@H](CC(C)C)NC(=O)[C@H](Cc3ccccc3)NC(=O)[C@H](C)NC(=O)[C@H](C)NC(=O)[C@H](Cc3cccc(C(=O)O)c3)NC(=O)[C@H](CC(=O)O)NC1=O)NC(=O)[C@H](CC(C)(C)C)NC(=O)[C@H](CC(=O)O)NC2=O` (stereo partly drawn) [I-1674, Ac-PL3-Asp-Npg-B5-Asp-3COOHF-Ala-Ala-Phe-Leu-PyrS2-2C1F-BztA-Gln-] are 6.83 and 4.74.
Taken in the same sequence, the figures for `CC(=O)N1CCC[C@]12CC=CCCCC1(CCCC=CCCCOC(=O)N3CC[C@@](C(=O)N[C@@H](Cc4ccccc4Cl)C(=O)N[C@@H](Cc4csc5ccccc45)C(=O)N[C@@H](CCC(N)=O)C(=O)N4CCC[C@H]4CO)(C3)NC(=O)[C@H](CC(C)C)NC(=O)[C@H](Cc3ccccc3)NC(=O)[C@H](C)NC(=O)[C@H](C)NC(=O)[C@H](Cc3cccc(C(=O)O)c3)NC(=O)[C@H](CC(=O)O)NC1=O)NC(=O)[C@H](CC(C)(C)C)NC(=O)[C@H](CC(=O)O)NC2=O` (stereo partly drawn) [I-1675, Ac-PL3-Asp-Npg-B5-Asp-3COOHF-Ala-Ala-Phe-Leu-PyrS2-2C1F-BztA-Gln-Proo1] were 7.73 and 5.01.
